Values of other authors, collected in patent publication US7904011B2, “Temperature control unit and image forming apparatus including same” (Ricoh Company, Ltd., priority 2007, dated 2011).

Settings: in vivo

With CCOCCOC(=O)CCC(=O)OCCOCC [diethoxyethyl succinate] as the molecule, how does the “acute oral toxicity LD50” value read?
The value was 5 g/kg.

With CC1COC(=O)O1 (stereo not drawn) [propylene carbonate] as the molecule, how does the “acute oral toxicity LD50” value read?
Its value is 29 g/kg.

Which “acute oral toxicity LD50” value does the source give for [Cl-].[Na+] [salt, reference compound] here?
Its value is 3 g/kg.
